Laboratory results published in publication PMC12669630, “The twist-and-squeeze activation of CARF-fused adenosine deaminase by cyclic oligoadenylates” (The EMBO Journal, 2025).
Where two headings read alike, the source gives them in different places. Each block holds one compound with its values, some of them ahead of it.

What was measured:
[1] = molecular target: T1, TaqCad1 (Thermoanaerobaculum aquaticum, UniProt A0A062XY19, G264D/N549D); test: HPLC ATP deamination assay; format: biochemical; details: no conversion; cA4 activator, Mg2+, pH 7.5, 55 °C
T1 construct: gene EG19_07865; full length 1-625, C-terminal His6 tag kept, E. coli NiCo21(DE3); homohexamer (trimer of dimers); N-terminal CARF, C-terminal ADA domain
T1 sequence (A0A062XY19 entry or part of it G264D/N549D): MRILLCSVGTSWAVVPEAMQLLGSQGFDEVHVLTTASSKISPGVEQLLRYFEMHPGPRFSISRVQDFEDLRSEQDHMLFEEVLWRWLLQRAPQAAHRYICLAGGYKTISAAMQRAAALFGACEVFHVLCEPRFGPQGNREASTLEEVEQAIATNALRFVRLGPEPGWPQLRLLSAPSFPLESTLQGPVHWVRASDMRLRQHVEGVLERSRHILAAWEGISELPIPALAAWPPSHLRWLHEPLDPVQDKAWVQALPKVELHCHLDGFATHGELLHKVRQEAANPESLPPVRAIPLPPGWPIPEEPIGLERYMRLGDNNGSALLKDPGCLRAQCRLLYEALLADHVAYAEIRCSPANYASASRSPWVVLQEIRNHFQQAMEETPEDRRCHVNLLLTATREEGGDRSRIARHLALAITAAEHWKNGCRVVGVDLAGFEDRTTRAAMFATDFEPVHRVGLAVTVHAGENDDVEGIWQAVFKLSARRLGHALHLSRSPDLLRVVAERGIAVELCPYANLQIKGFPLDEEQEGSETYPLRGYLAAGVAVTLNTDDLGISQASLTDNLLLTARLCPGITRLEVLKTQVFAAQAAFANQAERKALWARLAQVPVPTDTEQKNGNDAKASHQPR

[2] = molecular target: T2, TaqCad1 (Thermoanaerobaculum aquaticum, UniProt A0A062XY19, N549D); test: HPLC ATP deamination assay; format: biochemical; details: no conversion; cA4 activator, Mg2+, pH 7.5, 55 °C
T2 construct: gene EG19_07865; full length 1-625, C-terminal His6 tag kept, E. coli NiCo21(DE3); homohexamer (trimer of dimers); N-terminal CARF, C-terminal ADA domain
T2 sequence (A0A062XY19 entry or part of it N549D): as the sequence (A0A062XY19 entry or part of it G264D/N549D) above, with D264G counted along it

[3] = molecular target: T3, TaqCad1 (Thermoanaerobaculum aquaticum, UniProt A0A062XY19); test: microscale thermophoresis (RED-tris-NTA labelled protein); format: binding
T3 construct: gene EG19_07865; full length 1-625, C-terminal His6 tag kept, E. coli NiCo21(DE3); homohexamer (trimer of dimers); N-terminal CARF, C-terminal ADA domain
T3 sequence (A0A062XY19 entry or part of it): as the sequence (A0A062XY19 entry or part of it G264D/N549D) above, with D264G, D549N counted along it

[4] = molecular target: TaqCad1 R408D/A411E variant (Thermoanaerobaculum aquaticum); test: SEC; gel filtration elution profiles of wild type and R408D/A411E compared; column and buffer of this run not stated

Compound: Nc1ncnc2c1ncn2[C@@H]1O[C@H](COP(=O)(O)OP(=O)(O)OP(=O)(O)O)[C@@H](O)[C@H]1O [ATP]
HPLC ATP deamination assay [1]: the N549D or the N549D/G264D variant of TaqCad1 did not react to ATP | HPLC ATP deamination assay [2]: the N549D or the N549D/G264D variant of TaqCad1 did not react to ATP

Kd ([3]; read-out: apparent Kd): 13 ± 7 nM
Compound: Nc1ncnc2c1ncn2[C@@H]1O[C@@H]2COP(=O)(O)O[C@H]3[C@@H](O)[C@H](n4cnc5c(N)ncnc54)O[C@@H]3COP(=O)(O)O[C@H]3[C@@H](O)[C@H](n4cnc5c(N)ncnc54)O[C@@H]3COP(=O)(O)O[C@H]3[C@@H](O)[C@H](n4cnc5c(N)ncnc54)O[C@@H]3COP(=O)(O)O[C@H]2[C@H]1O [cA4]

Kd ([3]; read-out: apparent dissociation constant): ~1400 nM
Compound: Nc1ncnc2c1ncn2[C@@H]1O[C@@H]2COP(=O)(O)O[C@H]3[C@@H](O)[C@H](n4cnc5c(N)ncnc54)O[C@@H]3COP(=O)(O)O[C@H]3[C@@H](O)[C@H](n4cnc5c(N)ncnc54)O[C@@H]3COP(=O)(O)O[C@H]3[C@@H](O)[C@H](n4cnc5c(N)ncnc54)O[C@@H]3COP(=O)(O)O[C@H]3[C@@H](O)[C@H](n4cnc5c(N)ncnc54)O[C@@H]3COP(=O)(O)O[C@H]3[C@@H](O)[C@H](n4cnc5c(N)ncnc54)O[C@@H]3COP(=O)(O)O[C@H]2[C@H]1O [cA6]

stoichiometry N [4]: 2
Compound: TaqCad1 R408D/A411E variant (enzyme)
